Series [1] has as its system P. falciparum mature gametocytes / male gamete exflagellation. Put plainly: P. falciparum exflagellation assay. The class given is cell-based, Plasmodium falciparum. Particulars: for inhibition at 10 µM: Plasmodium falciparum.
The test system of series [2] is HepG2 cells. Put plainly: Growth retardation of HepG2 cells. Particulars: for IC50: Homo sapiens, HepG2, read-out: IC50 HepG2.
Series [3] deals with Plasmodium oocysts. Nature of the series: Oocyst development / sporogony, Plasmodium species not stated at the place. The class given is in vivo. Particulars: for inhibition at 10 µM: Plasmodium, box linked to oocysts, read-out: Inhibition at 10 μM (oocysts, Figure 5).
Series [4] concerns P. berghei ookinete formation. Put plainly: P. berghei ookinete development assay. The class given is cell-based, Plasmodium berghei. Conditions: 10 µM.
[5] abbreviates: 10 µM, 24 h exposure of mature gametocytes.

From PMC3283556, “The Activities of Current Antimalarial Drugs on the Life Cycle Stages of Plasmodium: A Comparative Study with Human and Rodent Parasites” (PLoS Medicine, 2012) come the findings set out here.

“Also recorded” adds a separate entry of the source. Read-outs that look alike come from different tables or passages of the source.

Take `COc1cc(N[C@H](C)CCCN)c2nccc(C)c2c1Oc1ccc(Cl)c(Cl)c1` [NPC-1161B]: the “effect on exflagellation (words)” value in series [1] (setting [5]) was “inhibited exflagellation totally; also recorded: inhibit exflagellation in vitro; also recorded: inhibited both exflagellation and oocyst production”; in series [1] (10 µM, 24 h exposure of mature gametocytes, listed as NPC1161-B), “showed potency”. Further, the inhibition at 10 µM is above 70% in series [1] (read-out: inhibition of exflagellation, 10 µM, 24 h exposure of mature gametocytes); above 60% in series [1] (10 μM, box linked to gametocytes/exflagellation, read-out: Inhibition at 10 μM (gametocytes/exflagellation, Figure 5)); above 90% in series [3]. Besides, in series [2], the IC50 (as a rule, the concentration at which inhibition is half-maximal) worked out at 0.84 ± 0.46 µM. Further, in series [2] (IC50 HepG2 compared to IC50 parasite), the “CI (cytotoxicity index)” value was 1.17. Moreover, in series [3] (species not given), the “effect on sporogony / oocyst production” value was “inhibits sporogony; also recorded: inhibit exflagellation in vitro and oocyst production in the mosquito vector; also recorded: inhibited both exflagellation and oocyst production”. Further, in series [4], the “effect on ookinete formation” value is “all assays except the ookinete assay”.
Take `CCCCN(CCCC)CCC(O)c1cc2c(Cl)cc(Cl)cc2c2cc(C(F)(F)F)ccc12` (centres unmarked) [halofantrine]: in series [1] (setting [5]), the “effect on exflagellation (words)” value is listed as “only moderate or no inhibition of exflagellation” and the “enhancement (stimulation) of exflagellation” value turned out to be 45%. Besides, the IC50 in series [2] is below 5.66 µM. For the same compound, in series [2] (human, 48 h), the “CI (cytotoxicity index)” value is given as below 2.44. The inhibition at 10 µM in series [3] was above 90%.
